Measured values as given in patent US7666868B2, “N-sulphonylpyrroles and their use as histone deacetylase inhibitors” (4SC AG, priority 2005, dated 2010).

How the values were obtained:
[1] = system: histone H3 acetylation (lysine 9+14) in HeLa cervical carcinoma cells; assay: Cellular histone H3 acetylation assay; assay type: cell-based; conditions: Homo sapiens, 24 h incubation with compound, read-out: EC50 (histone H3 acetylating cellular potency)
From the text: To assess the cellular efficacy of an histone deactylase inhibitor in vitro, an assay is set up in black clear-bottom 96-well plates and optimized for use on the Cellomics “ArrayScan II” platform for a quantitative calculation of histone acetylation. The protocol uses a polyclonal rabbit antibody, specifically binding to acetylated lysine 9+14 of human histone H3 on fixed cells with an Alexa Fluor 488 labeled goat ant rabbit-IgG used for counterstaining (modified from Braunger et al. MCR annual conference 2003, Abstract 4556).
5×10^3 HeLa cervical carcinoma cells/well (ATCC CCL-2) in 200 μl Dulbecco's modified Eagle's medium (DMEM) containing 10% fetal calf serum are seeded at day 1 in Packard view plates and incubated for 24 h under standard cell culture conditions. On day 2, 2 μl test compound (100× final concentration) is added and incubation continued for further 24 h. On day 3, the culture medium is discarded and attached cells fixed for 15 min at room temperature by addition of 100 μl fixation buffer (3.7% v:v formaldehyde in phosphate buffered saline/PBS). After discarding the fixation buffer and one wash with PBS, cells are permeabilized at room temperature by addition of 100 μl/well permeabilization buffer (30.8 mM NaCl, 0.54 mM Na2HPO4, 0.31 mM KH2PO4, 5% v:v Triton X-100) for 15 min at room temperature. After discarding the permeabilization buffer and washing twice with 100 μl/well blocking solution (PBS with 0.05% v:v Tween 20 and 5% w:v milk powder) at room temperature, the 1st antibody (anti-K9+14 histone H3 antibody, Calbiochem No. 382158) in blocking solution (50 μl/well) is added. After incubation for 1 h at 37° C., the wells are washed twice at room temperature with 100 μl/well blocking solution before addition of the 2nd antibody (goat-anti-rabbit Alexa Fluor 488; MoBiTec No. A-11008) in blocking solution (50 μl/well). After further incubation for 1 h at 37° C., wells are washed twice with 100 μl/well blocking solution room temperature. Finally, 100 d/well PBS are added and image analysis performed on the Cellomics “ArrayScan II” platform. For calculation of EC50 values, the nuclear fluorescence in cells treated with and without a reference HDAC inhibitor (eg NVP-LBH-589) are taken as a positive and negative control. For EC50 determination, the percentage of positive cells is determined and EC50 calculation done from concentration-effect curves by means of non-linear regression.

Row | EC50 [1] [nM] | melting point [°C] | Structure (SMILES)
1 | 27 to 4400 | 215 to 217 | O=C(/C=C/c1ccn(S(=O)(=O)c2cc(-c3ccccc3)ccc2CCCN2CCOCC2)c1)NO [Compound 45, (E)-N-Hydroxy-3-{1-[4-(3-morpholin-4-yl-propyl)-biphenyl-3-sulfonyl]-1H-pyrrol-3-yl}-acrylamide]
2 | 27 to 4400 | 118 to 119 | O=C(/C=C/c1ccn(S(=O)(=O)c2cc(-c3ccccc3)ccc2CNC2CC2)c1)NO [Compound 63, (E)-3-[1-(4-Cyclopropylaminomethyl-biphenyl-3-sulfonyl)-1H-pyrrol-3-yl]-N-hydroxy-acrylamide]
